Source: patent US20100028485A1, “TALAROMYCES EMERSONII ENZYME SYSTEMS” (priority 2006, published 2010)
Entries after “also recorded” stand apart in the source; their conditions may differ. One block for each molecule: values may come before it.

Legend:
Format in all cases: biochemical, Talaromyces emersonii
[1] = system: EG V, EG VI and EG VII; assay: Effects of metal ions, reagents, phenolics and glycosides stated for all three enzymes; conditions: for effect of phenolic substances on enzyme activity: pre-incubation of enzyme with compound in the absence of substrate; for inhibition by sulphydryl reagents: in the presence or absence of substrate
Procedure: (§1) Substrate specificity on various polysaccharides and synthetic glycosides was evaluated by 15 measuring activity against a wide variety of carbohydrates (BBG, lichenan, CMC, other polysaccharides and synthetic glycosides) using the normal β-glucanase assay procedure. • Effects Of Metal Ions, Chemical Modification Reagents And Potential Inhibitors A range of monovalent, divalent and heavy metal ions, at final assay concentrations of 1.0 mM, were investigated for their potential effects on the activities of EG V, EG VI and EG VII, by incubating the enzymes with the chemicals and then conducting the normal enzyme assay. Finally, the inhibitor effects of glycosides, such as disaccharides, lactones and flavanoid glycosides on the purified enzymes were examined. Specified concentrations of each glycoside were included in normal assay cocktails and residual activity determined by comparison with controls (no glycoside present).
(§2) Activity was expressed as a % relative to a control (no metal ion present in incubation mixture). In general, heavy metal ions are thought to inactivate enzymes by forming covalent salts with cysteine, histidine or carboxyl groups. […] A selection of reagents known to modify amino acid R-groups in proteins were tested for their effects on EG V, EG VI and EG VII, both in the absence and presence of substrate (substrate-protective effects could be observed in this manner) (see Table 6).

[2] = system: EG V; assay: Effects of metal ions, chemical modification reagents, detergents and potential inhibitors on EG V; conditions: for EG V activity, Enzyme + reagent (control = 100.0): Preincubation of enzyme with reagent for 30 min (50 C) prior to addition of substrate; for EG V activity, Substrate + reagent (control = 100.0): Preincubation of substrate with reagent for 30 min (50 C) prior to addition of enzyme; for EG V activity after protection experiment (control = 100.0): 1st incubation (30 min) enzyme + reagent, 2nd incubation (30 min) + NBS
Procedure: as §1, §2

[3] = system: EG VI; assay: Effects of metal ions, chemical modification reagents, detergents and potential inhibitors on EG VI; conditions: for EV VI activity, Enzyme + reagent (control = 100.0): Preincubation of enzyme with reagent for 30 min (50 C) prior to addition of substrate; for EGVI activity, Substrate + reagent (control = 100.0): Preincubation of substrate with reagent for 30 min (50 C) prior to addition of enzyme; for EGVI activity after protection experiment (control = 100.0): 1st incubation (30 min) enzyme + reagent, 2nd incubation (30 min) + NBS; for decrease in activity of EG VI: 1 mM metal ion, relative to control without metal ion
Procedure: as §1, §2

[4] = system: EG VII; assay: Effects of metal ions, chemical modification reagents, detergents and potential inhibitors on EG VII; conditions: for EG VII activity, Enzyme + reagent (control = 100.0): Preincubation of enzyme with reagent for 30 min (50 C) prior to addition of substrate; for EG VII activity, Substrate + reagent (control = 100.0): Preincubation of substrate with reagent for 30 min (50 C) prior to addition of enzyme; for EG VII activity after protection experiment (control = 100.0): 1st incubation (30 min) enzyme + reagent, 2nd incubation (30 min) + NBS
Procedure: as §1, §2

- effect of glycosides/disaccharides on activity of EG V-VII [1]: no apparent effect
Structure (SMILES): OC[C@H]1O[C@H](O[C@H]2[C@H](O)[C@@H](O)[C@H](O)O[C@@H]2CO)[C@H](O)[C@@H](O)[C@@H]1O [maltose]

- effect of glycosides/disaccharides on activity of EG V-VII [1]: no apparent effect
Structure (SMILES): OCc1ccccc1O[C@@H]1O[C@H](CO)[C@@H](O)[C@H](O)[C@H]1O [salicin]

Structure (SMILES): Oc1cccc(-c2ccccc2)c1 [m-phenylphenol]
- effect of phenolic substances on enzyme activity [1]: did not have a marked inhibitory effect

Structure (SMILES): O=c1ccc2cc(O[C@@H]3O[C@H](CO)[C@@H](O)[C@H](O)[C@H]3O)c(O)cc2o1 [esculin]
- effect of glycosides/disaccharides on activity of EG V-VII [1]: no apparent effect

- concentrations that markedly inhibited all three enzymes [1]: 50 to 75 mM
Structure (SMILES): O=C[C@H](O)[C@@H](O)[C@H](O[C@@H]1O[C@H](CO)[C@@H](O)[C@H](O)[C@H]1O)[C@H](O)CO [cellobiose]

- effect of glycosides/disaccharides on activity of EG V-VII [1]: no apparent effect
Structure (SMILES): OC[C@H]1O[C@@H](Oc2ccc(O)cc2)[C@H](O)[C@@H](O)[C@@H]1O [arbutin]

- effect of metal ion on activity of all three enzymes ([1]; 1 mM metal ion): enhanced the activity
Structure (SMILES): [Mo] [Mo^6+]

- EG V activity, Enzyme + reagent (control = 100.0) [2]: 162.7
- EV VI activity, Enzyme + reagent (control = 100.0) [3]: 280.0
- EG VII activity, Enzyme + reagent (control = 100.0) [4]: 305.9
Structure (SMILES): CC[n+]1ccc(-c2cccc(S(=O)(=O)[O-])c2)o1 [Woodward's Reagent K]
- EG V activity, Substrate + reagent (control = 100.0) [2]: 121.1
- EGVI activity, Substrate + reagent (control = 100.0) [3]: 266.7
- EG VII activity, Substrate + reagent (control = 100.0) [4]: 143.0

- effect of metal ion on activity of all three enzymes ([1]; 1 mM metal ion): enhanced the activity
Structure (SMILES): [Zn+2] [Zn^230]

- inhibition by sulphydryl reagents [1]: little or no inhibition
Structure (SMILES): CCN1C(=O)C=CC1=O [N-ethylmaleimide]

- effect of phenolic substances on enzyme activity [1]: did not have a marked inhibitory effect
Structure (SMILES): O=C(O)/C=C/c1ccccc1O [o-coumaric acid]

Structure (SMILES): O=C(O)c1ccc(O)c(O)c1 [protocatechuic acid]
- effect of phenolic substances on enzyme activity [1]: markedly activated

Structure (SMILES): COc1cc(C(=O)O)cc(OC)c1O [syringic acid]
- effect of phenolic substances on enzyme activity [1]: did not have a marked inhibitory effect; also recorded: markedly activated

Structure (SMILES): [Hg+2] [Hg^2+]
- effect of metal ion on activity of all three enzymes ([1]; 1 mM metal ion): Almost total inhibition

- effect of glycosides/disaccharides on activity of EG V-VII [1]: no apparent effect
Structure (SMILES): OC[C@H]1O[C@@](CO)(O[C@H]2O[C@H](CO)[C@@H](O)[C@H](O)[C@H]2O)[C@@H](O)[C@@H]1O [sucrose]

Structure (SMILES): O=C(O)c1cc[c]([Hg+])cc1.[OH-] [p-Hydroxymercuribenzoate]
- EG V activity, Enzyme + reagent (control = 100.0) [2]: 92.8
- EG V activity, Substrate + reagent (control = 100.0) [2]: 261.7
- EV VI activity, Enzyme + reagent (control = 100.0) [3]: 98.3
- EGVI activity, Substrate + reagent (control = 100.0) [3]: 125.0
- EG VII activity, Enzyme + reagent (control = 100.0) [4]: 99.5
- EG VII activity, Substrate + reagent (control = 100.0) [4]: 94.8
- inhibition by sulphydryl reagents [1]: little or no inhibition

- EG V activity, Enzyme + reagent (control = 100.0) [2]: 0.0
- EV VI activity, Enzyme + reagent (control = 100.0) [3]: 0.0
- EG VII activity, Enzyme + reagent (control = 100.0) [4]: 0.0
Structure (SMILES): O=C1CCC(=O)N1Br [N-Bromosuccinimide (NBS), N-Bromosuccinimide]
- EG V activity after protection experiment (control = 100.0) [2]: 0.0
- EG V activity, Substrate + reagent (control = 100.0) [2]: 0.0
- EGVI activity after protection experiment (control = 100.0) [3]: 0.0
- EGVI activity, Substrate + reagent (control = 100.0) [3]: 0.0
- EG VII activity after protection experiment (control = 100.0) [4]: 0.0
- EG VII activity, Substrate + reagent (control = 100.0) [4]: 0.0

Structure (SMILES): NC(=O)CI [Iodoacetamide]
- EG V activity, Enzyme + reagent (control = 100.0) [2]: 103.6
- EG V activity, Substrate + reagent (control = 100.0) [2]: 87.4
- EV VI activity, Enzyme + reagent (control = 100.0) [3]: 99.9
- EGVI activity, Substrate + reagent (control = 100.0) [3]: 122.6
- EG VII activity, Enzyme + reagent (control = 100.0) [4]: 101.6
- EG VII activity, Substrate + reagent (control = 100.0) [4]: 83.7
- inhibition by sulphydryl reagents [1]: little or no inhibition

- effect of metal ion on activity of all three enzymes ([1]; 1 mM metal ion): enhanced the activity
Structure (SMILES): [Mg+2] [Mg^2+]
- decrease of EG V activity by SO4^2− salt relative to Cl^− salt of same cation ([2]; 1 mM): 54.2%
- decrease of EG VI activity by SO4^2− salt relative to Cl^− salt of same cation ([3]; 1 mM): 50.1%

- effect of glycosides/disaccharides on activity of EG V-VII [1]: no apparent effect
Structure (SMILES): OC[C@@H](O)[C@@H](O)[C@H](O)[C@@H](O)CO [sorbitol]

- effect of phenolic substances on enzyme activity [1]: did not have a marked inhibitory effect
- effect of phenolic substances on enzyme activity ([1]; listed as cafeic acid): markedly activated
Structure (SMILES): O=C(O)/C=C/c1ccc(O)c(O)c1 [caffeic acid]

- effect of glycosides/disaccharides on activity of EG V-VII [1]: no apparent effect
Structure (SMILES): OC[C@H]1O[C@H](OCC2O[C@@H](O)[C@H](O)[C@@H](O)[C@@H]2O)[C@H](O)[C@@H](O)[C@H]1O (some centres unmarked) [melibiose]

- effect of metal ion on activity of all three enzymes ([1]; 1 mM metal ion): markedly decreased activity
Structure (SMILES): [Ag+] [Ag^+]

Structure (SMILES): [Na+].[O-][I+3]([O-])([O-])[O-] [Sodium periodate]
- EG V activity, Enzyme + reagent (control = 100.0) [2]: 181.0
- EG V activity, Substrate + reagent (control = 100.0) [2]: 283.3
- EV VI activity, Enzyme + reagent (control = 100.0) [3]: 357.1
- EGVI activity, Substrate + reagent (control = 100.0) [3]: 1001.2
- EG VII activity, Enzyme + reagent (control = 100.0) [4]: 300.0
- EG VII activity, Substrate + reagent (control = 100.0) [4]: 469.7

- EG V activity, Enzyme + reagent (control = 100.0) [2]: 211.1
- EV VI activity, Enzyme + reagent (control = 100.0) [3]: 187.1
- EG VII activity, Enzyme + reagent (control = 100.0) [4]: 188.1
Structure (SMILES): O=C(O)CS [Thioglycolic acid]
- EG V activity, Substrate + reagent (control = 100.0) [2]: 148.1
- EGVI activity, Substrate + reagent (control = 100.0) [3]: 269.0
- EG VII activity, Substrate + reagent (control = 100.0) [4]: 150.0

- effect of phenolic substances on enzyme activity [1]: potent inhibitor
Structure (SMILES): O=C(OC[C@H]1O[C@@H](OC(=O)c2cc(O)c(O)c(OC(=O)c3cc(O)c(O)c(O)c3)c2)[C@H](OC(=O)c2cc(O)c(O)c(OC(=O)c3cc(O)c(O)c(O)c3)c2)[C@@H](OC(=O)c2cc(O)c(O)c(OC(=O)c3cc(O)c(O)c(O)c3)c2)[C@@H]1OC(=O)c1cc(O)c(O)c(OC(=O)c2cc(O)c(O)c(O)c2)c1)c1cc(O)c(O)c(OC(=O)c2cc(O)c(O)c(O)c2)c1 [tannic acid]

- effect of phenolic substances on enzyme activity [1]: did not have a marked inhibitory effect
Structure (SMILES): Oc1cc(O)c2c(c1)O[C@H](c1ccc(O)c(O)c1)[C@H](O)C2 [(−)epicatechin]

- effect of phenolic substances on enzyme activity [1]: did not have a marked inhibitory effect
Structure (SMILES): COc1cc(/C=C/C(=O)O)ccc1O [ferulic acid]

- decrease in activity of all three enzymes ([1]; 1 mM metal ion): 35.4-88.0%
- effect of metal ion on activity of all three enzymes ([1]; 1 mM metal ion): markedly decreased activity
Structure (SMILES): [Fe+2] [Fe^2+]
- increase in activity of EG V ([2]; 1 mM metal ion, relative to control without metal ion): 20%
- decrease in activity of EG VI [3]: 38.6%
- decrease in activity of EG VI ([3]; listed as Fe^3+): 53.6-59.3%
- enhancement of EG VII activity by SO4^2− salt relative to corresponding Cl^− salt ([4]; 1 mM): ~4.5 fold
- effect of metal ion on EG VII ([4]; 1 mM metal ion): minimum effects

- effect of phenolic substances on enzyme activity [1]: did not have a marked inhibitory effect
Structure (SMILES): Oc1cc(O)c2c(c1)O[C@H](c1ccc(O)c(O)c1)[C@@H](O)C2 [(+)catechin]

- EG V activity, Enzyme + reagent (control = 100.0) [2]: 163.8
- EV VI activity, Enzyme + reagent (control = 100.0) [3]: 170.4
- EG VII activity, Enzyme + reagent (control = 100.0) [4]: 196.5
Structure (SMILES): N[C@@H](CS)C(=O)O [Cysteine]
- EG V activity after protection experiment (control = 100.0) [2]: 117.0
- EG V activity, Substrate + reagent (control = 100.0) [2]: 237.8
- EGVI activity after protection experiment (control = 100.0) [3]: 217.0
- EGVI activity, Substrate + reagent (control = 100.0) [3]: 370.20
- EG VII activity after protection experiment (control = 100.0) [4]: 167.0
- EG VII activity, Substrate + reagent (control = 100.0) [4]: 367.7
